From ChEMBL document CHEMBL1201862, “PubChem BioAssay data set” (2004)
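96-well plates; 48 h exposure; 5 concentrations. Endpoints by linear interpolation between flanking doses. Not reached: highest tested concentration assigned. GI50 = concentration required for 50% inhibition of growth.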 The source made the active and inactive calls. Rule as the data show it: active = GI50 up to about 1.1 µM and inactive = higher.

Tests used:
Test in all cases: inhibition of tumour cell growth, NCI panel, 48 h
CAKI-1 = system: CAKI-1
CCRF-CEM = system: CCRF-CEM
HCC 2998 = system: HCC 2998
HCT-15 = system: HCT-15
HL-60 = system: HL-60
HOP-62 = system: HOP-62
HT-29 = system: HT-29
MCF7 = system: MCF7
Malme-3M = system: Malme-3M
NCI-H23 = system: NCI-H23
OVCAR-4 = system: OVCAR-4
OVCAR-5 = system: OVCAR-5
OVCAR-8 = system: OVCAR-8
SF-539 = system: SF-539
SN12C = system: SN12C
SR = system: SR
SW-620 = system: SW-620
UACC-62 = system: UACC-62

Row | SMILES | GI50 (CAKI-1) | GI50 (CCRF-CEM) | GI50 (HCC 2998) | GI50 (HCT-15) | GI50 (HL-60) | GI50 (HOP-62) | GI50 (HT-29) | GI50 (MCF7) | GI50 (Malme-3M) | GI50 (NCI-H23) | GI50 (OVCAR-4) | GI50 (OVCAR-5) | GI50 (OVCAR-8) | GI50 (SF-539) | GI50 (SN12C) | GI50 (SR) | GI50 (SW-620) | GI50 (UACC-62)
1 | COc1cc(/C=C2/CCCc3ccccc3C2=O)cc(OC)c1OC | 18.8 µM (inactive) | 4.19 µM (inactive) | 22.5 µM (inactive) | 12.6 µM | 2.72 µM (inactive) | 24.2 µM (inactive) | 17.5 µM (inactive) | 9.79 µM (inactive) | 12.7 µM (inactive) | 18.4 µM (inactive) | 17.2 µM (inactive) | 30.6 µM (inactive) | 13.7 µM (inactive) | 18.6 µM (inactive) | 15.1 µM (inactive) | 2.74 µM (inactive) | 22.4 µM (inactive) | 16.4 µM (inactive)
2 | O=C(OCCN=c1c2ccccc2ccc2ccccc12)c1ccc([N+](=O)[O-])cc1 | > 100 µM (inactive) | > 100 µM (inactive) | > 100 µM (inactive) | > 100 µM | > 100 µM (inactive) | > 100 µM (inactive) | > 100 µM (inactive) | > 100 µM (inactive) | > 100 µM (inactive) | > 100 µM (inactive) | > 100 µM (inactive) | > 100 µM (inactive) | > 100 µM (inactive) | > 100 µM (inactive) | > 100 µM (inactive) | > 100 µM (inactive) | > 100 µM (inactive) | > 100 µM (inactive)
3 | Cc1ccccc1C(O)(c1nccn1C)c1nccn1C | > 100 µM (inactive) | > 100 µM (inactive) | > 100 µM (inactive) | > 100 µM | > 100 µM (inactive) | > 100 µM (inactive) | > 100 µM (inactive) | > 100 µM (inactive) | > 100 µM (inactive) |  | > 100 µM (inactive) | > 100 µM (inactive) | > 100 µM (inactive) | > 100 µM (inactive) | > 100 µM (inactive) | > 100 µM (inactive) | > 100 µM (inactive) | > 100 µM (inactive)
4 | NNC(=O)CCC(NS(=O)(=O)c1ccc(Cl)cc1)C(=O)NN (configuration not stated) | > 100 µM (inactive) | > 100 µM (inactive) | > 100 µM (inactive) | > 100 µM | > 100 µM (inactive) | > 100 µM (inactive) | > 100 µM (inactive) | > 100 µM (inactive) | > 100 µM (inactive) | > 100 µM (inactive) | > 100 µM (inactive) | > 100 µM (inactive) | > 100 µM (inactive) | > 100 µM (inactive) | > 100 µM (inactive) | > 100 µM (inactive) | > 100 µM (inactive) | > 100 µM (inactive)
5 | COc1cc2cc(C(=O)N3C[C@H](CCl)c4c3cc(N)c3ccccc43)[nH]c2c(OC)c1OC | < 0.005 µM (active) | 0.051 µM (active) | 1.93 µM (inactive) | 0.005 µM | 0.0586 µM (active) | 3.05 µM (inactive) | 0.00296 µM (active) | 0.0023 µM (active) | 0.005 µM (active) | 0.005 µM (active) | > 10 µM (inactive) | 0.0906 µM (active) | 0.447 µM (active) | 0.0284 µM (active) | 0.592 µM (active) | 8.28 µM (inactive) | 0.0233 µM (active) | 2.44 µM (inactive)
6 | C=C1C(=O)[C@@]23CC[C@@H]4[C@@]5(C)CCC[C@@]4(OC5=O)[C@@]2(C)CC[C@@H]1C3 | 0.863 µM (active) | 0.303 µM (active) | 2.19 µM (inactive) | 0.67 µM | 0.484 µM (active) | 2.84 µM (inactive) | 0.802 µM (active) | 0.893 µM (active) | 1.6 µM (inactive) | 1.94 µM (inactive) | 2.38 µM (inactive) | 2.12 µM (inactive) | 2.3 µM (inactive) | 2.12 µM (inactive) | 3.3 µM (inactive) | 0.955 µM (active) | 0.667 µM (active) | 1.48 µM (inactive)
